{"source": "patent US6689381B2", "about": "“Liposomal benzoquinazoline thymidylate synthase inhibitor formulations” (OSI Pharmaceuticals, Inc., priority 2000, dated 2004)", "key": {"[1]": {"system": "human colon tumor xenograft model (HCT-8, thymidine kinase (TK)-/-)", "assay": "HCT-8 xenograft, second study: liposomal GW1843U89 versus free drug (Table 26)", "format": "in vivo, Female Nu/Nu mice", "from_the_text": "Female Nu/Nu mice (18-24 g, 10-14 weeks old) were obtained from Harlan Sprague Dawley, and housed in microisolator filtration racks and maintained with filtered acidified water and sterile lab chow ad libitum. The human colon tumor xenograft model (HCT-8, thymidine kinase (TK)−/−) was obtained from Dr. Youcef M. Rustum (Roswell Park, Buffalo, N.Y.), and established in-house as a useful model for evaluation of thymidylate synthase inhibitors. Animals were allowed to acclimate to their new environment for 1 week prior to tumor cell implantation. Tumors were established by injecting harvested tumor cells in a single subcutaneous site on the flank of the mice in the axillary region. The tumors were grown until approximately 200+/−50 mm^3 in size. The animals were then sorted according to body weight, grouped four animals/cage, and tattooed on the tail for permanent identification. […] Tumor volumes were determined with vernier caliper measurements taken at right angles using the formula, (L×W^2/2) and body weights, were collected twice weekly. Data was plotted as % change in body weight vs. time in days, and % tumor volume increase vs. days.\n(§1) T=(mean) time in days for treated group to reach cutoff size (2 grams)\n(§2) C=(mean) time in days for control group to reach cutoff size (2 grams)\n(§3) WC is the mean tumor weight of control group at time x\n(§4) Wt is mean tumor weight of treated group at time x\n% Regression=100 (Wo−Wi)/Wo; where Wo is the mean tumor weight for treated group at the initiation of treatment and Wi=the mean tumor weight for that group at time some time x after treatment. Many times the time x=24-48 hr after the final dose of therapy.\nThe log10 cell kill (gross)=[T−C value in days/(3.32)(Td)\nWhere T−C=time difference in days between Treated and Control tumors to reach a defined end point; and Td is the Tumor Volume Doubling time in days from the best-fit straight line from a log-linear growth plot of the control tumors exponential growth (100-800 mg range). […]"}, "[2]": {"system": "human colon tumor xenograft model (HCT-8, thymidine kinase (TK)-/-)", "assay": "HCT-8 xenograft, NX1843 dose schedule study and combinations with 5-FU, NX211 and GW1843 (Table 27)", "format": "in vivo, nude mice", "experimental": "Female Nu/Nu mice (18-24 g, 10-14 weeks old) were obtained from Harlan Sprague Dawley, and housed in microisolator filtration racks and maintained with filtered acidified water and sterile lab chow ad libitum. […] Animals were allowed to acclimate to their new environment for 1 week prior to tumor cell implantation. Tumors were established by injecting harvested tumor cells in a single subcutaneous site on the flank of the mice in the axillary region. The tumors were grown until approximately 200+/−50 mm^3 in size. The animals were then sorted according to body weight, grouped four animals/cage, and tattooed on the tail for permanent identification. Groups consisting of 8 tumor-bearing mice each were administered weekly doses of experimental agents by IV bolus injection through the tail vein. Tumor volumes were determined with vernier caliper measurements taken at right angles using the formula, (L×W^2/2) and body weights, were collected twice weekly. Data was plotted as % change in body weight vs. time in days, and % tumor volume increase vs. days.\nas §1, §2, §3, §4\n% Regression=100 (Wo−Wi)/Wo; where Wo is the mean tumor weight for treated group at the initiation of treatment and Wi=the mean tumor weight for that group at time some time x after treatment.\nIn addition to these dose groups the free drug was dosed at 100 mg/kg on days 1-5, and repeated for a second week."}, "[3]": {"assay": "Example 2: single dose plasma pharmacokinetics of free GW1843 and four liposomal formulations, 1 mg/kg iv bolus", "format": "in vivo, Sprague Dawley rats", "conditions": "single 1 mg/kg iv bolus; for GW1843 Plasma Concentration: listed as Free GW1843, 1 mg/kg", "from_the_text": "The plasma pharmacokinetics of free GW1843 and 4 different liposome formulations (see Table 1A; GC-1007-27, GC-1020-36, NA-1022-63A, and NA-1022-59A) of GW1843 in rats following a single intravenous bolus administration are compared. The liposome formulations differed by the pH utilized to load the liposome. NX1843 lot nos. GC-1007-27, GC-1020-36, NA-1022-63A, and NA-1022-59A were loaded at pH 7.0, 7.4, 7.3 and 7.5, respectively.\nA total of fifteen Sprague Dawley rats were used in the study. Each rat weighed approximately 250 grams. Three animals were assigned to each group (five groups in total). Individual animals were weighed and dosed at 1 mg/kg body weight by intravenous bolus administration into the tail vein while under isoflurene anesthesia. EDTA blood samples were taken at the time points shown in Table 2 while under isoflurene anesthesia and immediately processed into plasma. Plasma was stored at −20° C. until analysis.\nPlasma samples were prepared and analyzed for GW1843 by the use of a non-validated HPLC assay. Following methanol precipitation of plasma protein, the soluble GW1843 was separated by C-18 reverse phase column chromatography. Separation was achieved by an isocratic method. Running buffer consisted of 80% acetonitrile and 20% 100 mM ammonium acetate pH=5.3. Area under the peak versus concentration of GW1843 was used to construct the standard curve.\nPharmacokinetic parameters were determined by non-compartmental analysis (WinNonlin version 1.5). Pharmacokinetic parameters were determined for each experimental group using the average concentration versus time values for each group. The following parameters were calculated: Maximum plasma concentration (Cmax); area under the plasma concentration versus time curve extrapolating to infinite time (AUCinf) or to last time point (AUClast); elimation half-life (Elim.T½); mean residence time (MRT) plasma clearance (Cl) and volume of distribution at steady state (Vss)."}, "[4]": {"conditions": "Sprague Dawley, rat, plasma, rats ~250 g, noncompartmental, group average"}}, "note": "Values joined by “and” are separate entries in the source; they are usually repeats but may differ in a detail not shown here. Equal values may be shown once. Read-outs that look alike come from different tables or passages of the source."}
{"compound": "Cc1nc2ccc3ccc(CNc4ccc5c(c4)CN(C(CCC(=O)O)C(=O)O)C5=O)cc3c2c(=O)[nH]1", "note": "(stereo not shown) [GW1843]", "values": [{"measurement": "log cell kill", "setting": "[1]; 25 mg/kg every day (total 350 mg/kg)", "result": 1.5}, {"measurement": "log cell kill", "setting": "[1]; 50 mg/kg every day (total 700 mg/kg)", "result": 3.5}, {"measurement": "tumor regression", "setting": "[1]; 25 and 50 mg/kg every day", "result": "no tumor regression occurred"}, {"measurement": "% TGI", "setting": "[2]; 100 mg/kg, QD1-5 × 2", "result": 80, "unit": "%"}, {"measurement": "Cures", "setting": "[2]; 100 mg/kg, QD1-5 × 2", "result": 0}, {"measurement": "LCK", "setting": "[2]; 100 mg/kg, QD1-5 × 2", "result": 2.4}, {"measurement": "% Regression day 22", "setting": "[2]; 100 mg/kg, QD1-5 × 2, day 22", "result": 0, "unit": "%"}, {"measurement": "log cell kill (LCK)", "setting": "[2]; iv, NX1843 25 mg/kg d1,8, 15 mg/kg QD(1,3,5)×2 or 7.5 mg/kg QD(1-5)×2, GW1843 100 mg/kg d1-5 ×2, 5FU 100 mg/kg d1,8, NX211 6 mg/kg d1,8, combinations at same doses", "result": 2.4}, {"measurement": "GW1843 Plasma Concentration", "setting": "[3]; 0.083 h, individual rats", "result": 0.76, "unit": "µg/mL"}, {"measurement": "GW1843 Plasma Concentration", "setting": "[3]; 0.250 h, individual rats", "result": "0.20 µg/mL and 0.19 µg/mL"}, {"measurement": "GW1843 Plasma Concentration", "setting": "[3]; 0.500 h, individual rats", "result": "0.11 µg/mL and 0.10 µg/mL"}, {"measurement": "GW1843 Plasma Concentration", "setting": "[3]; 1.000 h, individual rats", "result": "BLQ and 0.06 μg/mL"}, {"measurement": "concentration at 0.083 h", "setting": "[3]; Sprague Dawley, rat, plasma, iv, 1 mg/kg, 0.083 h, individual rats", "result": 520, "unit": "ng/mL"}, {"measurement": "concentration at 0.25 h", "setting": "[3]; Sprague Dawley, rat, plasma, iv, 1 mg/kg, 0.250 h, individual rats", "result": 180, "unit": "ng/mL"}, {"measurement": "concentration at 0.5 h", "setting": "[3]; Sprague Dawley, rat, plasma, iv, 1 mg/kg, 0.500 h, individual rats", "result": 100, "unit": "ng/mL"}, {"measurement": "concentration at 1 h", "setting": "[3]; Sprague Dawley, rat, plasma, iv, 1 mg/kg, 1.000 h, individual rats", "result": 60, "unit": "ng/mL"}, {"measurement": "Cmax", "setting": "[3]; Sprague Dawley, rat, plasma, iv, 1 mg/kg, rats ~250 g, noncompartmental, group average, read-out: Cmax", "result": 1280, "unit": "ng/mL"}, {"measurement": "half-life", "setting": "[3]; Sprague Dawley, rat, plasma, iv, 1 mg/kg, rats ~250 g, noncompartmental, group average, read-out: t½ (elimination half-life) (converted)", "result": "~30", "unit": "min"}, {"measurement": "Cmax", "setting": "[3]; Sprague Dawley, rat, plasma, iv, 1 mg/kg, rats, text of Example 2, read-out: maximum achieved concentrations (Cmax) in the plasma", "result": 1300, "unit": "ng/mL"}, {"measurement": "AUC(0-inf)", "setting": "[3]; [4]", "result": 263, "unit": "ng·h/mL"}, {"measurement": "AUC(0-t)", "setting": "[3]; [4]", "result": 219, "unit": "ng·h/mL"}, {"measurement": "MRT inf", "setting": "[3]; [4]", "result": 30, "unit": "min"}, {"measurement": "clearance", "setting": "[3]; Sprague Dawley, rat, plasma, rats ~250 g, noncompartmental, group average, read-out: Cl (converted)", "result": 63.4, "unit": "mL/min/kg"}, {"measurement": "Vd", "setting": "[3]; Sprague Dawley, rat, plasma, rats ~250 g, noncompartmental, group average, read-out: Vss", "result": 1.89, "unit": "L/kg"}, {"measurement": "clearance", "setting": "[3]; Sprague Dawley, rat, plasma, rats, text of Example 2, read-out: plasma clearance (converted)", "result": 63.4, "unit": "mL/min"}]}
